Experimental data: patent US20230085307A1, “PYRIDAZINONE COMPOUND AND HERBICIDE” (NISSAN CHEMICAL CORPORATION, priority 2019, published 2023)

What was measured:
false cleavers = test: Test Example 5: herbicidal effect by foliage application, plastic box (Table 20, symbol Q); type: in vivo, false cleavers (Galium spurium); details: foliage application, AAH 320 g/ha, evaluated three weeks after application
How it was run: (§1)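 Foliar spray test: emulsion formulation diluted in water to a set application rate, sprayed onto 14-day-old plants raised in diluvial soil at 25° C to 30° C under glass. Both herbicidal effect and crop effect rated visually three weeks later.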

blackgrass [1] = test: Test Example 5: herbicidal effect by foliage application, plastic box (Table 20, symbol J); type: in vivo, blackgrass (Alopecurus myosuroides); details: foliage application, AAH 320 g/ha, evaluated three weeks after application
How it was run: as §1

blackgrass [2] = test: Test Example 4: herbicidal effect by soil treatment (Table 19, symbol J); type: in vivo, blackgrass (Alopecurus myosuroides); details: amount of applied herbicide 320 g/ha
How it was run: (§2)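 Herbicidal effect was rated 3 weeks after treatment, using the scoring criteria of an earlier test. The compound, formulated as an emulsion and diluted in water to a set herbicide amount, had been sprayed uniformly on soil over freshly sown seeds. Growth took place in a greenhouse at 25° C. to 30° C.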

barnyard grass [3] = test: Test Example 3: herbicidal effect by foliage application, Wagner pot (Table 18, symbol H); type: in vivo, barnyard grass (Echinochloa crus-galli); details: amount of applied herbicide 320 g/ha
How it was run: (§3)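 Plants were sown in alluvial soil held under 0.1–0.5 cm standing water and grown 14 days in a greenhouse at 25–30 °C. An emulsifiable formulation, water-diluted to the set dose, was then sprayed onto the foliage, and effects were scored three weeks later using previously defined criteria.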

redroot pigweed [4] = test: Test Example 4: herbicidal effect by soil treatment (Table 19, symbol N); type: in vivo, redroot pigweed (Amaranthus retroflexus); details: amount of applied herbicide 320 g/ha
How it was run: as §2

Chinese sprangletop = test: Test Example 3: herbicidal effect by foliage application, Wagner pot (Table 18, symbol D); type: in vivo, chinese sprangletop (Leptochloa chinensis); details: amount of applied herbicide 320 g/ha
How it was run: as §3

wild oat [5] = test: Test Example 4: herbicidal effect by soil treatment (Table 19, symbol I); type: in vivo, wild oat (Avena fatua); details: amount of applied herbicide 320 g/ha
How it was run: as §2

chickweed [6] = test: Test Example 5: herbicidal effect by foliage application, plastic box (Table 20, symbol P); type: in vivo, common chickweed (Stellaria media); details: foliage application, AAH 320 g/ha, evaluated three weeks after application
How it was run: as §1

Japanese bulrush = test: Test Example 1: herbicidal activity, application before weed generation under submerged conditions (Table 16, symbol B); type: in vivo, Japanese bulrush (Schoenoplectus juncoides); details: 320 g/ha applied herbicide
How it was run: (§4)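 Alluvial soil was flooded to 4 cm depth, weed seeds were sown mixed and 2.5-leaf rice seedlings were transplanted. On sowing day, the compound's emulsion, diluted in water to a set dose, was applied to the water surface. Plants grew at 25–30 °C and were scored 0–5 after three weeks.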

redroot pigweed [7] = test: Test Example 5: herbicidal effect by foliage application, plastic box (Table 20, symbol N); type: in vivo, redroot pigweed (Amaranthus retroflexus); details: foliage application, AAH 320 g/ha, evaluated three weeks after application
How it was run: as §1

green foxtail [8] = test: Test Example 4: herbicidal effect by soil treatment (Table 19, symbol G); type: in vivo, green foxtail (Setaria viridis); details: amount of applied herbicide 320 g/ha
How it was run: as §2

lambsquarters [9] = test: Test Example 4: herbicidal effect by soil treatment (Table 19, symbol O); type: in vivo, lambsquarters (Chenopodium album); details: amount of applied herbicide 320 g/ha
How it was run: as §2

southern crabgrass [10] = test: Test Example 4: herbicidal effect by soil treatment (Table 19, symbol F); type: in vivo, southern crabgrass (Digitaria ciliaris); details: amount of applied herbicide 320 g/ha
How it was run: as §2

rice flat sedge = test: Test Example 3: herbicidal effect by foliage application, Wagner pot (Table 18, symbol E); type: in vivo, rice flat sedge (Cyperus iria); details: amount of applied herbicide 320 g/ha
How it was run: as §3

southern crabgrass [11] = test: Test Example 5: herbicidal effect by foliage application, plastic box (Table 20, symbol F); type: in vivo, southern crabgrass (Digitaria ciliaris); details: foliage application, AAH 320 g/ha, evaluated three weeks after application
How it was run: as §1

Italian ryegrass [12] = test: Test Example 4: herbicidal effect by soil treatment (Table 19, symbol K); type: in vivo, Italian ryegrass (Lolium multiflorum); details: amount of applied herbicide 320 g/ha
How it was run: as §2

Italian ryegrass [13] = test: Test Example 5: herbicidal effect by foliage application, plastic box (Table 20, symbol K); type: in vivo, Italian ryegrass (Lolium multiflorum); details: foliage application, AAH 320 g/ha, evaluated three weeks after application
How it was run: as §1

late watergrass = test: Test Example 1: herbicidal activity, application before weed generation under submerged conditions (Table 16, symbol A); type: in vivo, late watergrass (Echinochloa oryzicola); details: 320 g/ha applied herbicide
How it was run: as §4

wild oat [14] = test: Test Example 5: herbicidal effect by foliage application, plastic box (Table 20, symbol I); type: in vivo, wild oat (Avena fatua); details: foliage application, AAH 320 g/ha, evaluated three weeks after application
How it was run: as §1

barnyard grass [15] = test: Test Example 5: herbicidal effect by foliage application, plastic box (Table 20, symbol H); type: in vivo, barnyard grass (Echinochloa crus-galli); details: foliage application, AAH 320 g/ha, evaluated three weeks after application
How it was run: as §1

lambsquarters [16] = test: Test Example 5: herbicidal effect by foliage application, plastic box (Table 20, symbol O); type: in vivo, lambsquarters (Chenopodium album); details: foliage application, AAH 320 g/ha, evaluated three weeks after application
How it was run: as §1

persian speedwell [17] = test: Test Example 5: herbicidal effect by foliage application, plastic box (Table 20, symbol R); type: in vivo, Persian speedwell (Veronica persica); details: foliage application, AAH 320 g/ha, evaluated three weeks after application
How it was run: as §1

oval-leafed pondweed = test: Test Example 1: herbicidal activity, application before weed generation under submerged conditions (Table 16, symbol C); type: in vivo, oval-leafed pondweed (Monochoria vaginalis); details: 320 g/ha applied herbicide
How it was run: as §4

windgrass [18] = test: Test Example 4: herbicidal effect by soil treatment (Table 19, symbol L); type: in vivo, windgrass (Apera spica-venti); details: amount of applied herbicide 320 g/ha
How it was run: as §2

velvetleaf [19] = test: Test Example 5: herbicidal effect by foliage application, plastic box (Table 20, symbol M); type: in vivo, velvetleaf (Abutilon theophrasti); details: foliage application, AAH 320 g/ha, evaluated three weeks after application
How it was run: as §1

windgrass [20] = test: Test Example 5: herbicidal effect by foliage application, plastic box (Table 20, symbol L); type: in vivo, windgrass (Apera spica-venti); details: foliage application, AAH 320 g/ha, evaluated three weeks after application
How it was run: as §1

velvetleaf [21] = test: Test Example 4: herbicidal effect by soil treatment (Table 19, symbol M); type: in vivo, velvetleaf (Abutilon theophrasti); details: amount of applied herbicide 320 g/ha
How it was run: as §2

chickweed [22] = test: Test Example 4: herbicidal effect by soil treatment (Table 19, symbol P); type: in vivo, common chickweed (Stellaria media); details: amount of applied herbicide 320 g/ha
How it was run: as §2

persian speedwell [23] = test: Test Example 4: herbicidal effect by soil treatment (Table 19, symbol R); type: in vivo, Persian speedwell (Veronica persica); details: amount of applied herbicide 320 g/ha
How it was run: as §2

green foxtail [24] = test: Test Example 5: herbicidal effect by foliage application, plastic box (Table 20, symbol G); type: in vivo, green foxtail (Setaria viridis); details: foliage application, AAH 320 g/ha, evaluated three weeks after application
How it was run: as §1

barnyard grass [25] = test: Test Example 4: herbicidal effect by soil treatment (Table 19, symbol H); type: in vivo, barnyard grass (Echinochloa crus-galli); details: amount of applied herbicide 320 g/ha
How it was run: as §2

Cc1ccc(S(=O)(=O)Oc2c(C)nn(C)c(=O)c2-c2c(-c3ccc(OC(F)F)cc3)sc3ccc(F)cc23)cc1 [2-312]
Q: false cleavers, herbicidal effect (criteria 0-5) (false cleavers): 5 (Herbicidal rate of 90% or more (almost completely withered))
J: blackgrass, herbicidal effect (criteria 0-5) (blackgrass [1]): 4 (Herbicidal rate of 70% or more and less than 90%)
herbicidal effect on J: blackgrass (blackgrass [2]): 3 (Herbicidal rate of 40% or more and less than 70%)
herbicidal effect on H: barnyard grass (barnyard grass [3]): 5 (Herbicidal rate of 90% or more (almost completely withered))
herbicidal effect on N: redroot pigweed (redroot pigweed [4]): 5 (Herbicidal rate of 90% or more (almost completely withered))
herbicidal effect on D: Chinese sprangletop (Chinese sprangletop): 3 (Herbicidal rate of 40% or more and less than 70%)
herbicidal effect on I: wild oat (wild oat [5]): 0 (Herbicidal rate of 5% or less (almost no effect))
P: chickweed, herbicidal effect (criteria 0-5) (chickweed [6]): 5 (Herbicidal rate of 90% or more (almost completely withered))
Herbicidal effect on B: Japanese bulrush (grade 0-5) (Japanese bulrush): 3 (Herbicidal rate of 40% or more and less than 70%)
N: redroot pigweed, herbicidal effect (criteria 0-5) (redroot pigweed [7]): 5 (Herbicidal rate of 90% or more (almost completely withered))
herbicidal effect on G: green foxtail (green foxtail [8]): 0 (Herbicidal rate of 5% or less (almost no effect))
herbicidal effect on O: lambsquarters (lambsquarters [9]): 4 (Herbicidal rate of 70% or more and less than 90%)
herbicidal effect on F: southern crabgrass (southern crabgrass [10]): 0 (Herbicidal rate of 5% or less (almost no effect))
herbicidal effect on E: rice flat sedge (rice flat sedge): 5 (Herbicidal rate of 90% or more (almost completely withered))
F: southern crabgrass, herbicidal effect (criteria 0-5) (southern crabgrass [11]): 1 (Herbicidal rate of 5% or more and less than 20%)
herbicidal effect on K: Italian ryegrass (Italian ryegrass [12]): 5 (Herbicidal rate of 90% or more (almost completely withered))
K: Italian ryegrass, herbicidal effect (criteria 0-5) (Italian ryegrass [13]): 5 (Herbicidal rate of 90% or more (almost completely withered))
Herbicidal effect on A: late watergrass (grade 0-5) (late watergrass): 2 (Herbicidal rate of 20% or more and less than 40%)
I: wild oat, herbicidal effect (criteria 0-5) (wild oat [14]): 3 (Herbicidal rate of 40% or more and less than 70%)
H: barnyard grass, herbicidal effect (criteria 0-5) (barnyard grass [15]): 5 (Herbicidal rate of 90% or more (almost completely withered))
O: lambsquarters, herbicidal effect (criteria 0-5) (lambsquarters [16]): 5 (Herbicidal rate of 90% or more (almost completely withered))
R: persian speedwell, herbicidal effect (criteria 0-5) (persian speedwell [17]): 5 (Herbicidal rate of 90% or more (almost completely withered))
Herbicidal effect on C: oval-leafed pondweed (grade 0-5) (oval-leafed pondweed): 0 (Herbicidal rate of 5% or less (almost no effect))
herbicidal effect on L: windgrass (windgrass [18]): 0 (Herbicidal rate of 5% or less (almost no effect))
M: velvetleaf, herbicidal effect (criteria 0-5) (velvetleaf [19]): 5 (Herbicidal rate of 90% or more (almost completely withered))
L: windgrass, herbicidal effect (criteria 0-5) (windgrass [20]): 4 (Herbicidal rate of 70% or more and less than 90%)
herbicidal effect on M: velvetleaf (velvetleaf [21]): 3 (Herbicidal rate of 40% or more and less than 70%)
herbicidal effect on P: chickweed (chickweed [22]): 5 (Herbicidal rate of 90% or more (almost completely withered))
herbicidal effect on R: persian speedwell (persian speedwell [23]): 5 (Herbicidal rate of 90% or more (almost completely withered))
G: green foxtail, herbicidal effect (criteria 0-5) (green foxtail [24]): 4 (Herbicidal rate of 70% or more and less than 90%)
herbicidal effect on H: barnyard grass (barnyard grass [25]): 1 (Herbicidal rate of 5% or more and less than 20%)
